Laboratory results taken from patent US6972172B2, “Combinatorial complex carbohydrate libraries and methods for the manufacture and uses thereof” (Glycominds Ltd., priority 2000, dated 2005).
Values belong to the substance of their own block, whether it stands above or below them.

Tests used:
TGP lectin = TGP lectin binding assay; parameters: species or system Tereagonolobus purpureas; settings: Library 1 strip after the ERs sequence; peroxidase-conjugated lectin, O.D. 450 nm; versus control strip without nucleotide sugar
Method: TGP: 100 μl of 20 μg/ml TGP lectin conjugated to peroxidase (SIGMA L-1508, 10 peroxidase units per mg protein) was added to the plates and incubated for one hour at 25° C. in TBS containing 1% BSA and 10 millimolar of MnCl2 and of CaCl2. The wells were washed three times with 200 μl TBST with a last wash consisting of a 15 minutes soak. 100 μl of fresh peroxidase substrate solution was added, and an hour later the O.D. of the solution (at 450 nm) was determined. When the above described binding assays were performed on covalently coupled monosaccharide acceptors, such as the case with Covalink NH plates, the TBS incubation solution was replaced with TBST and the wash steps were performed using high ionic strength buffer instead of TBST.

[1] = test system: anti-Sialyl Lewis X IgM from mouse; assay: Anti-Sialyl Lewis X antibody binding assay; settings: Library 1 strip after the ERs sequence, anti-mouse IgM-biotin, avidin-peroxidase, O.D. 450 nm, versus control strip without nucleotide sugar
Method: Anti-Sialyl Lewis X: 100 μl of 10 μg/ml anti-Sialyl Lewis X IgM from mouse (Calbiochem 565953) was added to the plates and incubated for 1 hour at 25° C. in TBS containing 1% BSA. The wells were washed 3 times with 200 μl TBST with a last wash consisting of a 15 minutes soak, following which, a solution of TBS containing 1% BSA and 100 μl of 5 μg/ml goat anti-mouse IgM conjugated to biotin (SIGMA b-9265) was added to the plates and incubated for one hour at 25° C. The wells were washed 3 times with […] with a last wash consisting of a 15 minutes soak, followed by incubation with […] containing 1% BSA and 5 μg/ml avidin conjugated to peroxidase (SIGMA A-3151, 40 peroxidase units per mg protein) for 1 hour at 25° C. The wells were washed three times with 200 μl TBST with a last wash consisting of a 15 minutes soak. 100 μl of fresh peroxidase substrate solution was added, and an hour later the O.D. of the solution (at 450 nm) was determined.
When the above described binding assays were performed on covalently coupled monosaccharide acceptors, such as the case with Covalink NH plates, the TBS incubation solution was replaced with TBST and the wash steps were performed using high ionic strength buffer instead of TBST.

[2] = activity of the polysaccharide as cited from the reference in Table 15; cited from earlier work

TGP binding (TGP lectin): increase
Substance: Gal β 1,4 (Fuc α 1,3)GlcNAc-S [EM 5]

IgM Anti-Sialyl Lewis X binding [1]: increase
Substance: NeuAC α 2,3 Gal β 1,4 (Fuc α 1,3)GlcNAc [EM 6]

Substance: Fucoidan
Activity [2]: anti coagulant
